Assays:
[1] = Kinetic (aqueous) solubility in pH 7.4 DPBS, UV quantification; details: for Solubility* (kinetic): pH 7.4 DPBS, 4 hours, room temperature (25° C.), from 10 mM DMSO stock
[2] = Singlet oxygen quantum yield, indirect method with chemical quencher (DPBF or ADMA); format: physicochemical
Text: Photogeneration quantum yields of singlet oxygen (ΦΔ) were obtained by an indirect method, using either diphenylisobenzofuran (DBPF) or anthracene-9,10-bis-methylmalonate (ADMA) as chemical quenchers in either N,N-dimethylformamide or aqueous media, respectively. Typically, a solution of the phthalocyanine and the quencher was irradiated with a red LED lamp (670 nm) at 5 mW/cm^2. The initial DPBF or ADMA concentrations were kept the same for both the reference and the test samples. The degradation of the DPBF band at 414 nm or ADMA at 401 nm was monitored in a Varian Cary® 50 UV-Vis spectrophotometer, every five seconds in the case of DPBF (up to 30 seconds) and every minute in the case of ADMA (up to five minutes). ZnPc (ΦΔ=0.67) and AlPcSmix (ΦΔ=0.42) were used as references in N,N-dimethylformamide or aqueous media, respectively.
The relative method shown by Eq. (1) was employed for calculations of the ΦΔ:
[formula] where ΦΔ and ΦΔref are the ^1O2 generation quantum yields for the sample and reference, respectively, m and mref are the DPBF or ADMA photobleaching rates in the presence of the phthalocyanine of the invention and the reference, respectively, and I and Iref are the rates of light absorption by the phthalocyanine derivative and reference, respectively. Concentrations of the test compound and reference were chosen such that their respective absorptions at the irradiation wavelength were the same.

[3] = test system: BxPC3 cells; assay: Cell killing of free dye PIT, CellTox Green Cytotoxicity Assay; format: cell-based; details: BxPC3, 0.00137-1 μg/mL, 690 nm laser 64 J/cm^2, 24 hours after light
Procedure: The PIT killing activity of free dyes were evaluated using the molecules synthesized as Example 12 and Example 13. BxPC3 cells (#CRL-1687, ATCC, Manassas VA) were plated, 5,000 cells per well, in RPMI-1640 media supplemented with 10% FBS and 1% Penicillin/Streptomycin (complete culture media) in a deep-well 96-well plate. Following overnight incubation at 37° C., the culture media were removed and the cells were incubated in 100 μL complete media with 1, 0.333, 0.111, 0.03704, 0.01235, 0.00412, 0.00137, or 0 μg/mL Example 12, Example 13, or IRDye 700DX carboxylate (control) for one hour at 4° C. […]
The effect of different treatment regimens on cell death was measured using the CellTox™ Green Cytotoxicity Assay (Cat No: G8742, Promega, Madison, WI). […] The CellTox™ Green fluorescence signal was measured at 24 hours after light treatment using a fluorescence plate reader. The cells were then lysed with diluted lysis solution (Cat No: G1821, Promega, Madison, WI), incubated at 37° C. for 30 minutes, and the CellTox™ Green fluorescence signal was measured again post-lysis. The percentages of dead cells were calculated by taking the ratio between background (1× CellTox™ Green in complete culture media without cells)-subtracted CellTox™ Green signal per well prior to and post lysis and multiplying the ratio by 100.

[4] = reference in N,N-dimethylformamide; cited from earlier work
[5] = quencher ADMA, aqueous media, 670 nm LED 5 mW/cm^2, reference AlPcSmix

Compound	ΦΔ (singlet oxygen quantum yield) [2, 5]	Solubility* (kinetic) [1]	further results
C[Si](C)(CCC[N+](CCCS(=O)(=O)O)(CCCS(=O)(=O)O)CCCS(=O)(=O)O)O[Si-2]123(O[Si](C)(C)CCC[N+](CCCS(=O)(=O)O)(CCCS(=O)(=O)O)CCOCCOCCOCCC(=O)O)n4c5c6ccccc6c4N=C4c6ccccc6C(=[N+]41)N=c1c4ccccc4c(n12)=NC1=[N+]3C(=N5)c2ccccc21.[Na+].[Na+].[Na+].[Na+] [Example 19, Sodium 2-((19-((dimethyl(3-(tris(3-sulfonatopropyl)ammonio)propyl)silyl)oxy)-19H-6,11-(azeno)-17,21-(azeno[3]episoindoloazeno)benzo[7,8][1,3,5,10]tetraaza[2]silacycloundecino[4,3-a:11,1-a′]diisoindol-19-yl)oxy)-2-methyl-6,6-bis(3-sulfonatopropyl)-9,12,15-trioxa-6-aza-2-silaoctadecan-6-ium-18-oate]	B (>0.5)		solubility kinetic at 4 h ([1]; 25 °C, pH 7.4, aqueous buffer, kinetic from dmso stock): > 100 µg/mL
3-((6-((λ^5-azaneyl)oxy)-6-oxohexyl)(3-(((λ5-azaneyl)oxy)sulfonyl)propyl)(3-(((19-(((3-(bis(3-(((λ5-azaneyl)oxy)sulfonyl)propyl)(3-sulfonatopropyl)ammonio)propyl)dimethylsilyl)oxy)-19H-6,11-(azeno)-17,21-(azeno[3]episoindoloazeno)benzo[7,8][1,3,5,10]tetraaza[2]silacycloundecino[4,3-a:11,1-a′]diisoindol-19-yl)oxy)dimethylsilyl)propyl)ammonio)propane-1-sulfonate [Example 12]	B (>0.5)	C (>100 μg/mL)	cell death after illumination (free dye) [3]: dose-dependent cytotoxicity
4-((6-((λ5-azaneyl)oxy)-6-oxohexyl)(4-(((λ5-azaneyl)oxy)sulfonyl)butyl)(3-(((19-(((3-(bis(4-(((λ5-azaneyl)oxy)sulfonyl)butyl)(4-sulfonatobutyl)ammonio)propyl)dimethylsilyl)oxy)-19H-6,11-(azeno)-17,21-(azeno[3]episoindoloazeno)benzo[7,8][1,3,5,10]tetraaza[2]silacycloundecino[4,3-a:11,1-a′]diisoindol-19-yl)oxy)dimethylsilyl)propyl)ammonio)butane-1-sulfonate [Example 13]	B (>0.5)	C (>100 μg/mL)	cell death after illumination (free dye) [3]: dose-dependent cytotoxicity
C[Si](C)(CCCNC(=O)COCC(=O)O)O[Si]1(O[Si](C)(C)CCCNC(=O)NCCS(=O)(=O)O)n2c3c4ccccc4c2N=C2N=C(N=c4c5ccccc5c(n41)=NC1=NC(=N3)c3ccccc31)c1ccccc12.N (centres unmarked) [Example 7, Ammonium 2-(2-((3-(((19-((dimethyl(3-(3-(2-sulfonatoethyl)ureido)propyl)silyl)oxy)-19H-6,11-(azeno)-17,21-(azeno[1]episoindoloazeno)benzo[7,8][1,3,5,10]tetraaza[2]silacycloundecino[4,3-a:11,1-a′]diisoindol-19-yl)oxy)dimethylsilyl)propyl)amino)-2-oxoethoxy)acetate]		A (≤1 μg/mL)	
C[Si](C)(CCCNC(=O)COCC(=O)O)O[Si]1(O[Si](C)(C)CCCNC(=O)NCC(S(=O)(=O)O)S(=O)(=O)O)n2c3c4ccccc4c2N=C2N=C(N=c4c5ccccc5c(n41)=NC1=NC(=N3)c3ccccc31)c1ccccc12.N (centres unmarked) [Example 8, Ammonium 2-(2-((3-(((19-(((3-(3-(2,2-disulfonatoethyl)ureido)propyl)dimethylsilyl)oxy)-19H-6,11-(azeno)-17,21-(azeno[1]episoindoloazeno)benzo[7,8][1,3,5,10]tetraaza[2]silacycloundecino[4,3-a:11,1-a′]diisoindol-19-yl)oxy)dimethylsilyl)propyl)amino)-2-oxoethoxy)acetate]		A (≤1 μg/mL)	
C[Si](C)(CCCNC(=O)CCCN(CCCS(=O)(=O)O)CCCS(=O)(=O)O)O[Si]1(O[Si](C)(C)CCCNC(=O)COCC(=O)O)n2c3c4ccccc4c2N=C2N=C(N=c4c5ccccc5c(n41)=NC1=NC(=N3)c3ccccc31)c1ccccc12.N (centres unmarked) [Example 15, Ammonium 2-(2-((3-(((19-(((3-(4-(bis(3-sulfonatopropyl)ammonio)butanamido)propyl)dimethylsilyl)oxy)-19H-6,11-(azeno)-17,21-(azeno[1]episoindoloazeno)benzo[7,8][1,3,5,10]tetraaza[2]silacycloundecino[4,3-a:11,1-a′]diisoindol-19-yl)oxy)dimethylsilyl)propyl)amino)-2-oxoethoxy)acetate]		B (>1 μg/mL to ≤100 μg/mL)	
COCCOCCOCC(=O)NCCC[Si](C)(C)O[Si-2]123(O[Si](C)(C)CCCNC(=O)CCCCC(=O)O)n4c5c6ccccc6c4N=C4c6ccccc6C(=[N+]41)N=c1c4ccccc4c(n12)=NC1=[N+]3C(=N5)c2ccccc21 [Example 1, 6-((3-(dimethyl((19-((15-methyl-10-oxo-2,5,8-trioxa-11-aza-15-silahexadecan-15-yl)oxy)-19H-6,11-(azeno)-17,21-(azeno[3]episoindoloazeno)benzo[7,8][1,3,5,10]tetraaza[2]silacycloundecino[4,3-a:11,1-a′]diisoindol-19-yl)oxy)silyl)propyl)amino)-6-oxohexanoic acid]			ΦΔ (singlet oxygen quantum yield) ([2]; quencher DPBF, N,N-dimethylformamide, 670 nm LED 5 mW/cm^2, reference ZnPc): A (≤0.5)
Ammonium 3-((4-((3-(((19-(((3-(2-(carboxymethoxy)acetamido)propyl)dimethylsilyl)oxy)-19H-6,11-(azeno)-17,21-(azeno[3]episoindoloazeno)benzo[7,8][1,3,5,10]tetraaza[2]silacycloundecino[4,3-a:11,1-a′]diisoindol-19-yl)oxy)dimethylsilyl)propyl)amino)-4-oxobutyl)bis(3-sulfopropyl)ammonio)propane-1-sulfonae [Example 5]	B (>0.5)		
C[Si](C)(CCC[N+](CCCCS(=O)(=O)[O-])(CCCCS(=O)(=O)[O-])CCCCS(=O)(=O)[O-])O[Si@@]1(O[Si](C)(C)CCC[N+](CCCCS(=O)(=O)[O-])(CCCCS(=O)(=O)[O-])CCOCCOCCC(=O)[O-])n2c3c4ccccc4c2/N=C2N=C(/N=c4/c5ccccc5/c(n41)=N/C1=NC(=N\3)/c3ccccc31)c1ccccc1\2.[Na+].[Na+].[Na+].[Na+] [Example 18, Sodium 2-((19-((dimethyl(3-(tris(4-sulfonatobutyl)ammonio)propyl)silyl)oxy)-19H-6,11-(azeno)-17,21-(azeno[3]episoindoloazeno)benzo[7,8][1,3,5,10]tetraaza[2]silacycloundecino[4,3-a:11,1-a′]diisoindol-19-yl)oxy)-2-methyl-6,6-bis(4-sulfonatobutyl)-9,12-dioxa-6-aza-2-silapentadecan-6-ium-15-oate]	B (>0.5)	C (>100 μg/mL)	
[Zn+2].c1ccc2c(c1)-c1nc-2nc2[n-]c(nc3nc([n-]c4nc(n1)-c1ccccc1-4)-c1ccccc1-3)c1ccccc21 [ZnPc]			ΦΔ of reference [4]: 0.67
C[Si](C)(CCC[N+](CCCCS(=O)(=O)O)(CCCCS(=O)(=O)O)CCCCS(=O)(=O)O)O[Si-2]123(O[Si](C)(C)CCC[N+](CCCCS(=O)(=O)O)(CCCCS(=O)(=O)O)CCOCCOCCOCCC(=O)O)n4c5c6ccccc6c4N=C4c6ccccc6C(=[N+]41)N=c1c4ccccc4c(n12)=NC1=[N+]3C(=N5)c2ccccc21.[Na+].[Na+].[Na+].[Na+] [Example 17, Sodium 2-((19-((dimethyl(3-(tris(4-sulfonatobutyl)ammonio)propyl)silyl)oxy)-19H-6,11-(azeno)-17,21-(azeno[3]episoindoloazeno)benzo[7,8][1,3,5,10]tetraaza[2]silacycloundecino[4,3-a:11,1-a′]diisoindol-19-yl)oxy)-2-methyl-6,6-bis(4-sulfonatobutyl)-9,12,15-trioxa-6-aza-2-silaoctadecan-6-ium-18-oate]	B (>0.5)		

— US12448518B2, “Phthalocyanine dye compounds, conjugates and methods of use thereof” (Rakuten Medical, Inc., priority 2020, dated 2025)
